Species: Rattus norvegicus
Assay: DrugMatrix - Regimen: Daily Repeat
Format: toxicity, organism-based, Sprague-Dawley
Set-up: regimen Daily Repeat, gender Male, age 6-8 weeks
Settings: in vivo, po, route oral GAVAGE, vehicle 100 % WATER; for ERYTHROCYTE COUNT / HEMATOCRIT / HEMOGLOBIN / LEUKOCYTE COUNT / MEAN CORPUSCULAR HEMOGLOBIN / MEAN CORPUSCULAR HEMOGLOBIN CONCENTRATION / MEAN CORPUSCULAR VOLUME: tissue Blood; for ALANINE AMINOTRANSFERASE / ALBUMIN / ALKALINE PHOSPHATASE / ASPARTATE AMINOTRANSFERASE / BLOOD UREA NITROGEN / CARBON DIOXIDE / CHLORIDE / CHOLESTEROL / CREATINE PHOSPHOKINASE / CREATININE / GLUCOSE / LACTATE DEHYDROGENASE / LIPASE / PHOSPHORUS / POTASSIUM / SODIUM / TOTAL BILIRUBIN / TOTAL PROTEIN / URIC ACID: tissue Plasma
[1] = 0 mg/kg, 72 h, dose level Control, time 3 day
[2] = 0 mg/kg, 120 h, dose level Control, time 5 day
[3] = 70 mg/kg, 72 h, dose level Low, time 3 day
[4] = 70 mg/kg, 120 h, dose level Low, time 5 day

COc1cc2c(N3CCN(C(=O)Nc4ccc(OC(C)C)cc4)CC3)ncnc2cc1OCCCN1CCCCC1 [TANDUTINIB]
ERYTHROCYTE COUNT [1]: 6.09 x10E6/uL | HEMATOCRIT [1]: 42.62% | HEMOGLOBIN [1]: 13.07 G/DL | LEUKOCYTE COUNT [1]: 13.95 x10E3/uL | MEAN CORPUSCULAR HEMOGLOBIN [1]: 21.47 pg | MEAN CORPUSCULAR HEMOGLOBIN CONCENTRATION [1]: 30.62 G/DL | MEAN CORPUSCULAR VOLUME [1]: 70.05 fL | ALANINE AMINOTRANSFERASE [1]: 47.67 u/L | ALBUMIN [1]: 3.8 G/DL | ALKALINE PHOSPHATASE [1]: 369 u/L | ASPARTATE AMINOTRANSFERASE [1]: 86.17 u/L | BLOOD UREA NITROGEN [1]: 16.33 mg/dL | CARBON DIOXIDE [1]: 37.33 mmol/L | CHLORIDE [1]: 104.83 MEQ/L | CHOLESTEROL [1]: 79.83 mg/dL | CREATINE PHOSPHOKINASE [1]: 392.83 u/L | CREATININE [1]: 0.68 mg/dL | GLUCOSE [1]: 153.33 mg/dL | LACTATE DEHYDROGENASE [1]: 426.17 u/L | LIPASE [1]: 11.67 u/L | PHOSPHORUS [1]: 11 mg/dL | POTASSIUM [1]: 6.72 MEQ/L | SODIUM [1]: 146.67 MEQ/L | TOTAL BILIRUBIN [1]: 0.55 mg/dL | TOTAL PROTEIN [1]: 6.32 G/DL | URIC ACID [1]: 0.0167 mg/dL | ERYTHROCYTE COUNT [2]: 6.93 x10E6/uL | HEMATOCRIT [2]: 46.82% | HEMOGLOBIN [2]: 14.23 G/DL | LEUKOCYTE COUNT [2]: 13.43 x10E3/uL | MEAN CORPUSCULAR HEMOGLOBIN [2]: 20.55 pg | MEAN CORPUSCULAR HEMOGLOBIN CONCENTRATION [2]: 30.38 G/DL | MEAN CORPUSCULAR VOLUME [2]: 67.62 fL | ALANINE AMINOTRANSFERASE [2]: 44.67 u/L | ALBUMIN [2]: 3.8 G/DL | ALKALINE PHOSPHATASE [2]: 417.83 u/L | ASPARTATE AMINOTRANSFERASE [2]: 83 u/L | BLOOD UREA NITROGEN [2]: 15.33 mg/dL | CARBON DIOXIDE [2]: 38.83 mmol/L | CHLORIDE [2]: 98.17 MEQ/L | CHOLESTEROL [2]: 66.83 mg/dL | CREATINE PHOSPHOKINASE [2]: 383.17 u/L | CREATININE [2]: 0.72 mg/dL | GLUCOSE [2]: 156.5 mg/dL | LACTATE DEHYDROGENASE [2]: 519.67 u/L | LIPASE [2]: 4.83 u/L | PHOSPHORUS [2]: 11.07 mg/dL | POTASSIUM [2]: 6.03 MEQ/L | SODIUM [2]: 138 MEQ/L | TOTAL BILIRUBIN [2]: 0.55 mg/dL | TOTAL PROTEIN [2]: 6.3 G/DL | URIC ACID [2]: 0.0833 mg/dL | ERYTHROCYTE COUNT [3]: 6.43 x10E6/uL | HEMATOCRIT [3]: 44.4% | HEMOGLOBIN [3]: 13.2 G/DL | LEUKOCYTE COUNT [3]: 8.32 x10E3/uL | MEAN CORPUSCULAR HEMOGLOBIN [3]: 20.5 pg | MEAN CORPUSCULAR HEMOGLOBIN CONCENTRATION [3]: 29.63 G/DL | MEAN CORPUSCULAR VOLUME [3]: 69.13 fL | ALANINE AMINOTRANSFERASE [3]: 47 u/L | ALBUMIN [3]: 3.87 G/DL | ALKALINE PHOSPHATASE [3]: 436.67 u/L | ASPARTATE AMINOTRANSFERASE [3]: 80.67 u/L | BLOOD UREA NITROGEN [3]: 15.33 mg/dL | CARBON DIOXIDE [3]: 37.33 mmol/L | CHLORIDE [3]: 107.67 MEQ/L | CHOLESTEROL [3]: 84.67 mg/dL | CREATINE PHOSPHOKINASE [3]: 198 u/L | CREATININE [3]: 0.67 mg/dL | GLUCOSE [3]: 163.33 mg/dL | LACTATE DEHYDROGENASE [3]: 277.33 u/L | LIPASE [3]: 14.33 u/L | PHOSPHORUS [3]: 9.63 mg/dL | POTASSIUM [3]: 6.33 MEQ/L | SODIUM [3]: 149.67 MEQ/L | TOTAL BILIRUBIN [3]: 0.47 mg/dL | TOTAL PROTEIN [3]: 6.2 G/DL | URIC ACID [3]: 0.0333 mg/dL | ERYTHROCYTE COUNT [4]: 6.62 x10E6/uL | HEMATOCRIT [4]: 44.77% | HEMOGLOBIN [4]: 13.67 G/DL | LEUKOCYTE COUNT [4]: 11.49 x10E3/uL | MEAN CORPUSCULAR HEMOGLOBIN [4]: 20.67 pg | MEAN CORPUSCULAR HEMOGLOBIN CONCENTRATION [4]: 30.6 G/DL | MEAN CORPUSCULAR VOLUME [4]: 67.7 fL | ALANINE AMINOTRANSFERASE [4]: 36.33 u/L | ALBUMIN [4]: 3.8 G/DL | ALKALINE PHOSPHATASE [4]: 323.33 u/L | ASPARTATE AMINOTRANSFERASE [4]: 69 u/L | BLOOD UREA NITROGEN [4]: 14.67 mg/dL | CARBON DIOXIDE [4]: 34.67 mmol/L | CHLORIDE [4]: 100.67 MEQ/L | CHOLESTEROL [4]: 73 mg/dL | CREATINE PHOSPHOKINASE [4]: 199 u/L | CREATININE [4]: 0.67 mg/dL | GLUCOSE [4]: 164.33 mg/dL | LACTATE DEHYDROGENASE [4]: 327 u/L | LIPASE [4]: 5.67 u/L | PHOSPHORUS [4]: 11.33 mg/dL | POTASSIUM [4]: 5.83 MEQ/L | SODIUM [4]: 139.67 MEQ/L | TOTAL BILIRUBIN [4]: 0.43 mg/dL | TOTAL PROTEIN [4]: 6.17 G/DL | URIC ACID [4]: 0.27 mg/dL

Reference: ChEMBL document CHEMBL3885881, “DrugMatrix”
